Test results: US20230365537A1, “POLO LIKE KINASE 4 INHIBITORS” (ORIC Pharmaceuticals, Inc., priority 2021, published 2023)

Columns and labels:
[1] = target: human recombinant PLK4 (Homo sapiens (Human), UniProt O00444); test: PLK4 Biochemical Assay (ADP-Glo); conditions: 0.5 nM PLK4, 8.0 µM ATP, 4.7 µM MBP, 6 hours at RT
Method in brief: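 Luminescent ADP-Glo detection quantified ADP production, with ATP depletion for 40 min and detection for 30 min at room temperature. Compound and PLK4 (1.0 nM stock addition) were preincubated 15 min in HEPES pH 7.5 buffer containing MgCl2, EGTA, DTT, Brij-35 and BSA. IC50 values were obtained by four-parameter nonlinear regression.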

[2] = tested on: CHP-134 cells; test: CHP134 CellTiter-Glo (CTG) Assay; type: cell-based; conditions: Homo sapiens, CHP-134, 120 h, 5 days, viable cells by CellTiter-Glo
Method in brief: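 Nine-point 1:3 dilution series, diluted into growth media, added in quadruplicate to CHP-134 cells plated 16 h earlier at 200 cells/well.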

[3] = target: human recombinant Aurora A (Homo sapiens (Human), UniProt O14965); test: Aurora A Kinase Biochemical Assay (ADP-Glo); conditions: ratio of Aurora A IC50 to PLK4 IC50 (selectivity)
Sequence of human recombinant Aurora A (O14965 whole entry): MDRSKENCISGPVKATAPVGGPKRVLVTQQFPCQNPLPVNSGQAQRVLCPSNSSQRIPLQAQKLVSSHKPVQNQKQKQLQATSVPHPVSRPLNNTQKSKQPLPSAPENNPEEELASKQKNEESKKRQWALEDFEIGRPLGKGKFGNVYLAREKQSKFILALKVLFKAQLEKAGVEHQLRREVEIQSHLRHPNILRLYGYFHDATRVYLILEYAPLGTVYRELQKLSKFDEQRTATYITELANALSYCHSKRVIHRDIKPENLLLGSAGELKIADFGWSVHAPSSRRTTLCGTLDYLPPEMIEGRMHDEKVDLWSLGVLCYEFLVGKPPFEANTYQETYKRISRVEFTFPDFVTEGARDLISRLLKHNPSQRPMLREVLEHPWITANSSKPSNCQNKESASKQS

[4] = target: human recombinant Aurora B (Homo sapiens (Human), UniProt Q96GD4); test: Aurora B Kinase Biochemical Assay (ADP-Glo); conditions: ratio of Aurora B IC50 to PLK4 IC50 (selectivity)
Sequence of human recombinant Aurora B (Q96GD4 whole entry): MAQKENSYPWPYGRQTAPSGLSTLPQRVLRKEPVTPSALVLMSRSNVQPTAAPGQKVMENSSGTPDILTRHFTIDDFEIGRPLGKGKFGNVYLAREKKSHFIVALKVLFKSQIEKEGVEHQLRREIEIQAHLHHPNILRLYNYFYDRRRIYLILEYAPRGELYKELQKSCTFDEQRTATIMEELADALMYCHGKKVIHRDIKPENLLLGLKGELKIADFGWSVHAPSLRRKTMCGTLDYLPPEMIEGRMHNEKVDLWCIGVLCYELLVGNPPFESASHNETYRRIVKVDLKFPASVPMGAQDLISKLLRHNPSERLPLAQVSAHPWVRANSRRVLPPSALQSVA
Method in brief: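 IC50 derived by four-parameter nonlinear fit of ADP-Glo luminescence (ADP produced). Compound was preincubated 15 min at RT with 20 nM recombinant human Aurora B, in 50 mM HEPES pH 7.5, 10 mM MgCl2, 1 mM EGTA, 1 mM DTT, 0.01% Brij-35/BSA.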

Sequence of human recombinant PLK4 (O00444 whole entry): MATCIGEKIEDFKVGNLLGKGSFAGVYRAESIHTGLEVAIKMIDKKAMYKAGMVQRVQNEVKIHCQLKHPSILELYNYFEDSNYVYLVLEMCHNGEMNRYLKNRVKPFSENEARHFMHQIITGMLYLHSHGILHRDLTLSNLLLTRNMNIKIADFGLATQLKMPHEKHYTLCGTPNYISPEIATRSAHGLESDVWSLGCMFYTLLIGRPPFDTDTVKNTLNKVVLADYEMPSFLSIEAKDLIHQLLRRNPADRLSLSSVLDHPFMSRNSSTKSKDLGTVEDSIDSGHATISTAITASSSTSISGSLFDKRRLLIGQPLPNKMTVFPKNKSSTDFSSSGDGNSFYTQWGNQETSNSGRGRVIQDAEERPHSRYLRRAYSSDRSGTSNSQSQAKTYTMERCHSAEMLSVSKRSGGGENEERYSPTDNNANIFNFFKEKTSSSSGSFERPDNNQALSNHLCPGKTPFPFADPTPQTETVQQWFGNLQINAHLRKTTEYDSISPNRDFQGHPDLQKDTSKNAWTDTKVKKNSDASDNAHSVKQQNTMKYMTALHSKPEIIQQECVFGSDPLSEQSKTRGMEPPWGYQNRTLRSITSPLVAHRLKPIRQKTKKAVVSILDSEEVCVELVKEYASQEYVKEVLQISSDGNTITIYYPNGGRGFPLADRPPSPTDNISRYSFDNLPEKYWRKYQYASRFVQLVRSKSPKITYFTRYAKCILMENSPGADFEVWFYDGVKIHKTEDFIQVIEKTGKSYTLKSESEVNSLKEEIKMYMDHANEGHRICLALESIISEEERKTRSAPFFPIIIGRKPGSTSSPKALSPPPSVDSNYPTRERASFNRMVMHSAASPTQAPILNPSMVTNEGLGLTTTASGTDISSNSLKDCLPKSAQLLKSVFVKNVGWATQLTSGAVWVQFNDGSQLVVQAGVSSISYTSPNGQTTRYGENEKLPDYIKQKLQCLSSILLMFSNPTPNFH

IC50 [1]	[Aurora A IC50 (nM)]/[PLK4 IC50 (nM)] [3]	[Aurora B IC50 (nM)]/[PLK4 IC50 (nM)] [4]	Structure (SMILES)	IC50 [2]
4.02 nM	436.427	79.87	COc1ccc2c(c1)[C@]1(C[C@H]1c1ccc3c(Nc4cc(C5CC5)nn4C)n[nH]c3c1)C(=O)N2 [Example 91, (1R,2S)-2-{3-[(3-cyclopropyl-1-methyl-1H-pyrazol-5-yl)amino]-1H-indazol-6-yl}-5′-methoxyspiro[cyclopropane-1,3′-indol]-2′(1′H)-one]	3200 nM
5.61 nM	533.856	41.732	COc1ccc2c(c1)[C@]1(C[C@H]1c1ccc3c(Nc4ncc(N5CCOCC5)nc4OC)n[nH]c3c1)C(=O)N2 [Example 94, (1R,2S)-5′-methoxy-2-(3-{[3-methoxy-5-(morpholin-4-yl)pyrazin-2-yl]amino}-1H-indazol-6-yl)spiro[cyclopropane-1,3′-indol]-2′(1′H)-one]	4600 nM
1.31 nM	2386.677	54.26	COc1ccc2c(c1)[C@]1(C[C@H]1c1ccc3c(Nc4ccnc(N5CCOCC5)c4OC)n[nH]c3c1)C(=O)N2 [Example 95, (1R,2S)-5′-methoxy-2-(3-{[3-methoxy-2-(morpholin-4-yl)pyridin-4-yl]amino}-1H-induzol-6-yl)spiro[cyclopropane-1,3′-indol]-2′(1′H)-one]	319 nM
11.3 nM	511.3656	351.8943	COc1ccc2c(c1)[C@]1(C[C@H]1c1ccc3c(Nc4cc(C)ncc4Cl)n[nH]c3c1)C(=O)N2 [Example 96, (1R,2S)-2-{3-[(5-chloro-2-methylpyridin-4-yl)amino]-1H-indazol-6-yl}-5′-metboxyspiro[cyclopropane-l,3′-indol]-2′(1′H)-one]	56.6 nM
1.14 nM	309.2186	520.2809	COc1ccc2c(c1)[C@]1(C[C@H]1c1ccc3c(Nc4nc(N5CCOCC5)ncc4OC)n[nH]c3c1)C(=O)N2 [Example 97, (lR,2S)-5′-methoxy-2-(3-{[5-methoxy-2-(morpholin-4-yl)pyrimidin-4-yl]amino}-1H-indazol-6-yl)spiro[cyclopropane-1,3′-indol]-2′(1′H)-one]	222 nM
7.55 nM	787.0003	305.5335	COc1ccc2c(c1)[C@]1(C[C@H]1c1ccc3c(Nc4nc(C)ncc4Cl)n[nH]c3c1)C(=O)N2 [Example 98, (1R,2S)-2-{3-[(5-chloro-2-methylpyrimidin-4-yl)amino]-1H-indazol-6-yl)-5′-methoxyspiro[cyclopropane-1,3′-indol]-2′(1′H)-one]	65.8 nM
5.8 nM	155.05	129.9724	COc1ccc2c(c1)[C@]1(C[C@H]1c1ccc3c(Nc4nc(N5CCOCC5)cnc4OC)n[nH]c3c1)C(=O)N2 [Example 99, (1R,2S)-5′-methoxy-2-(3-{[3-methoxy-6-(morpholin-4-yl)pyrazin-2-yl]amino)-1H-indazol-6-yl)spiro[cyclopropane-1,3′-indol]-2′(1′H)-one]	565 nM
1.73 nM	382.0069	230.4498	COc1ccc2c(c1)[C@]1(C[C@H]1c1ccc3c(Nc4nc(C5COC5)cnc4OC)n[nH]c3c1)C(=O)N2 [Example 100, (1R,2S)-5′-methoxy-2-(3-{[3-methoxy-6-(oxetan-3-yl)pyrazin-2-yl]amino}-1H-indazol-6-yl)spiro[cyclopropane-1,3′-indol]-2′(l′H)-one]	567 nM
11.3 nM	1271.845	1002.648	COc1ccc2c(c1)[C@]1(C[C@H]1c1ccc3c(Nc4cc(C(C)C)nnc4OC)n[nH]c3c1)C(=O)N2 [Example 101, (1R,2S)-5′-methoxy-2-(3-{[3-methoxy-6-(propan-2-yl)pyridazin-4-yl]amino}-1H-indazol-6-yl)spiro[cyclopropane-1,3′-indol]-2′(1′H)-one]	2290 nM
5.7 nM	1455.295	174.4215	COc1ccc2c(c1)[C@]1(C[C@H]1c1ccc3c(Nc4ncnc(N5CC(O)C5)c4Cl)n[nH]c3c1)C(=O)N2C [Example 107, (1R,2S)-2-(3-{[5-chloro-6-(3-hydroxyazetidin-1-yl)pyrimidin-4-yl]amino}-1H-indazol-6-yl)-5′-methoxy-1′-methylspiro[cyclopropane-1,3′-indol]-2′(1′H)-one]	730 nM
4.37 nM	3889.143	230.6459	CCN1C(=O)[C@@]2(C[C@H]2c2ccc3c(Nc4ncnc(N5CC(O)C5)c4Cl)n[nH]c3c2)c2cc(OC)ccc21 [Example 108, (1R,2S)-2-(3-{[5-chloro-6-(3-hydroxyazetidin-1-yl)pyrimidin-4-yl]amino}-1H-indazol-6-yl)-1′-ethyl-5′-methoxyspiro[cyclopropane-1,3′-indol]-2′(1′H)-one]	1090 nM
6.76 nM	50000	11070	COc1ccc2c(c1)[C@]1(C[C@H]1c1ccc3c(Nc4ncnc(N5CCOCC5)c4OC(F)F)n[nH]c3c1)C(=O)N2 [Example 109, (1R,2S)-2-(3-{[5-(difluoromethoxy)-6-(morpholin-4-yl)pyrimidin-4-yl]amino}-lH-indazol-6-yl)-5′-methoxyspiro[cyclopropane-1,3′-indol]-2′(1′H)-one]	1870 nM
10.7 nM	1888.2629	231.7370	COc1ccc2c(c1)[C@]1(C[C@H]1c1ccc3c(Nc4ncnc(N5CCOCC5)c4OC)n[nH]c3c1)C(=O)N2C [Example 113, (1R,2S)-5′-methoxy-2-(3-{[5-methoxy-6-(morpholin-4-yl)pyrimidin-4-yl]amino}-1H-indazol-6-yl)-1′-methylspiro[cyclopropane-1,3′-indol]-2′(1′H)-one]	2520 nM
2.09 nM	590.1482	811.5734	COc1ccc2c(c1)[C@]1(C[C@H]1c1ccc3c(Nc4nc(N5CC(O)C5)ncc4OC)n[nH]c3c1)C(=O)N2 [Example 114]	10000 nM
8.04 nM	132.6035	186.3415	COc1ccc2c(c1)[C@]1(C[C@H]1c1ccc3c(Nc4cncc(C5COC5)n4)n[nH]c3c1)C(=O)N2 [Example 115, (1R,2S)-5′-methoxy-2-(3-{[6-(oxetan-3-yl)pyrazin-2-yl]amino}-1H-indazol-6-yl)spiro[cyclopropane-1,3′-indol]-2′(1′H)-one]	3460 nM
2.89 nM	788.5813	483.7370	COc1ccc2c(c1)[C@]1(C[C@H]1c1ccc3c(Nc4nc(C5CC5)ncc4Cl)n[nH]c3c1)C(=O)N2 [Example 116, (1R,2S)-2-(3-((5-chloro-2-cyclopropylpyrimidin-4-yl)amino)-1H-indazol-6-yl)-5′-methoxyspiro[cyclopropane-1,3′-indolin]-2′-one]	134 nM
2.32 nM	1388.1947	906.5058	COc1ccc2c(c1)[C@]1(C[C@H]1c1ccc3c(Nc4nc(C(C)C)ncc4Cl)n[nH]c3c1)C(=O)N2 [Example 117, (1R,2S)-2-(3-{[5-chloro-2-(propan-2-yl)pyrimidin-4-yl]amino}-1H-indazol-6-yl)-5′-methoxyspiro[cyclopropane-1,3′-indol]-2′(1′H)-one]	109 nM
7.32 nM	457.0413	902.3357	COc1ccc2c(c1)[C@]1(C[C@H]1c1ccc3c(Nc4nc(C5COC5)ncc4Cl)n[nH]c3c1)C(=O)N2 [Example 118, (1R,2S)-2-(3-{[5-chloro-2-(oxetan-3-yl)pyrimidin-4-yl]amino}-1H-indazol-6-yl)-5′-methoxyspiro[cyclopropane-1,3′-indol]-2′(1′H)-one]	2360 nM
1.59 nM	870.2770	973.5516	COc1ccc2c(c1)[C@]1(C[C@H]1c1ccc3c(Nc4nc(C5COC5)ncc4OC)n[nH]c3c1)C(=O)N2 [Example 119, (1R,2S)-5′-methoxy-2-(3-{[5-methoxy-2-(oxetan-3-yl)pyrimidin-4-yl)amino}-1H-indazol-6-yl)spiro[cyclopropane-1,3′-indol]-2′(1′H)-one]	2660 nM
